# Measurements from US20240269073A1, “CO-AMORPHOUS FORMS FOR USE IN CANCER THERAPY” (Zerion Pharma APS, priority 2021, published 2024).
# Experiments:
# [1] = Chemical compatibility of Olaparib with prednisolone on storage; type: physicochemical; settings: Olaparib and Prednisolone combined, 1 month in sealed containers at 40° C. and 75% RH
# Procedure: An experiment was carried out to determine whether Olaparib is chemically compatible with prednisolone, both alone and in the co-amorphous form.
# [2] = equivalent glucocorticoid dose; cited from earlier work
# prostate cancer = settings: cited from earlier work
# [3] = cited from earlier work
# high-risk mCSPC = settings: cited from earlier work
# [4] = system: plasma proteins, primarily albumin; settings: cited from earlier work
# [5] = cited from earlier work; remark: listed apart in the source
# [6] = system: prostate cancer with mutations in DNA repair genes; settings: cited from earlier work
smiles,measurement,setting,value
C[C@]12C=CC(=O)C=C1CC[C@@H]1[C@@H]2[C@@H](O)C[C@@]2(C)[C@H]1CC[C@]2(O)C(=O)CO [Prednisolone],Degradation on combined storage,[1],No degradations
same,Equivalent amount,[2],5 mg
CC(=O)OCC(=O)[C@@]1(O)CC[C@H]2[C@@H]3CCC4=CC(=O)CC[C@]4(C)[C@H]3C(=O)C[C@@]21C [Cortisone acetate],Equivalent amount,[2],25 mg
C[C@]12CCC(=O)C=C1CC[C@@H]1[C@@H]2[C@@H](O)C[C@@]2(C)[C@H]1CC[C@]2(O)C(=O)CO [Hydrocortisone],Equivalent amount,[2],20 mg
C[C@@H]1C[C@H]2[C@@H]3C[C@H](F)C4=CC(=O)C=C[C@]4(C)[C@H]3[C@@H](O)C[C@]2(C)[C@@]1(O)C(=O)CO [Paramethasone],Equivalent amount,[2],2 mg
"CC(=O)O[C@H]1CC[C@@]2(C)C(=CC[C@@H]3[C@@H]2CC[C@]2(C)C(c4cccnc4)=CC[C@@H]32)C1 [Abiraterone acetate, [(3S,8R,9S,10R,13S,14S)-10,13-dimethyl-17-pyridin-3-yl-2,3,4,7,8,9,11,12,14,15-decahydro-1H-cyclopenta[a]phenanthren-3-yl] acetate]",HR for survival vs ADT-alone group,prostate cancer; P<0.001,0.63
same,3-year survival rate,prostate cancer; in vivo,83%
same,water solubility,[3],less than 1 mg/mL
same,mOS,high-risk mCSPC; 1000 mg daily with prednisone 5 mg twice daily and GnRH agonist/antagonist,53.3 months
same,mPFS,high-risk mCSPC; 1000 mg daily with prednisone and GnRH agonist/antagonist,33.0 months
same,HR for mPFS vs placebo group,"high-risk mCSPC; 95% CI, 0.39-0.55, P<0.001",0.47
same,HR for mOS vs placebo arm,high-risk mCSPC; P<0.001,0.62
CC1(C)C(=O)N(c2ccc(C#N)c(C(F)(F)F)c2)C(=S)N1c1ccc(C(N)=O)c(F)c1 [N-desmethyl enzalutamide],bound to plasma proteins,[4],95%
O=C(c1cc(Cc2n[nH]c(=O)c3ccccc23)ccc1F)N1CCN(C(=O)C2CC2)CC1 [Olaparib],administered dose recovered,"[5]; after 7 days, total",approximately 86%
same,administered dose found in urine,[5]; after 7 days,44%
same,administered dose obtained in feces,[5]; after 7 days,42%
same,AUC,[5]; after a dose of 200 mg,25800 ng·h/mL
same,increase of AUC with constant administration,[5]; constant administration,26%
same,time to peak concentration,[5]; following oral administration,1 to 3 h
same,effect of high-fat diet on peak concentration,[5]; high-fat diet,does not have an effect in the peak concentration
same,effect of high-fat diet on tmax,[5]; high-fat diet,can decrease the tmax
same,"unchanged form, share of the circulating dose",[5]; in vivo,70%
same,median time lived without evidence of cancer getting worse,"[6]; cohort A (BRCA1, BRCA2 or ATM alterations)",7.4 months
same,improvement of survival versus control,"[6]; cohort A, versus abiraterone or enzalutamide",more than 4 months
same,overall survival,[6]; cohort A,19.1 months
same,tumor response (tumors shrink),[6]; in vivo,33%
same,Degradation on combined storage,[1],No degradations
same,water solubility,[3],about 0.06 mg/mL
C[C@]12C=CC(=O)C=C1CC[C@H]1[C@@H]3C[C@@H](O)[C@](O)(C(=O)CO)[C@@]3(C)C[C@H](O)[C@@]12F [Triamcinolone],Equivalent amount,[2],4 mg
"CNC(=O)c1ccc(N2C(=S)N(c3ccc(C#N)c(C(F)(F)F)c3)C(=O)C2(C)C)cc1F [Enzalutamide, 4-[3-[4-cyano-3-(trifluoromethyl)phenyl]-5,5-dimethyl-4-oxo-2-sulfanylideneimidazolidin-1-yl]-2-fluoro-N-methylbenzamide]",water solubility,[3],less than 1 mg/mL
